Structures can show the parent of a compound that is named as a salt. Where two headings read alike, the source gives them in different places.
How the values were obtained:
5-HT1A receptor [1] = molecular target: T1, 5-HT1A receptor (Homo sapiens, UniProt P08908); assay: cell-based; parameters: species or system CHO-K1; cAMP HTRF agonist assay, Gi coupled receptors, inhibition of stimulated cAMP; conditions: cAMP
T1 construct: gene HTR1A; full-length human recombinant receptor in CHO-K1 cells (Ogeda); crude membranes
T1 sequence (P08908 1-422): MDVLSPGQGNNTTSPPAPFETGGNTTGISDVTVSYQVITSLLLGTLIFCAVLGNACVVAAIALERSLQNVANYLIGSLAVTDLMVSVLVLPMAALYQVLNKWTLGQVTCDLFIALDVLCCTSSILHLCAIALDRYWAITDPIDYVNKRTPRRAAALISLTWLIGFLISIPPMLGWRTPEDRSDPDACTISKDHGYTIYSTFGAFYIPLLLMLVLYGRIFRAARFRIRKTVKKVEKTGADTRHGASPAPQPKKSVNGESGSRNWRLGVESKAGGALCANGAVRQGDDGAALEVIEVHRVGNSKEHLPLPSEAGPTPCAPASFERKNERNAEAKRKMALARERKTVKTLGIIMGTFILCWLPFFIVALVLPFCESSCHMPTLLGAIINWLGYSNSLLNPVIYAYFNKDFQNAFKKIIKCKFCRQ
Procedure: Concentration–response curves were performed in parallel with the agonists. […] After addition of the lysis buffer and 1‐hr incubation, cAMP concentrations were estimated according to the manufacturer specification with the HTRF kit (Cisbio International, Codelet, France). In brief, increasing concentrations of agonists were added to stably transfected cells in buffer in an Optiplate (PerkinElmer Life Sciences, Massachusetts, USA). The plates were incubated, and cells were then lysed by the addition of HTRF reagents (cAMP‐Cryptate and anti‐cAMP‐d2 reagents) and diluted in lysis buffer, followed by incubation at room temperature. […] Additionally, the reference values obtained were compared to historical values obtained from the same receptor and used to validate the experimental session. […] For the new assays developed in this study (i.e., 5‐ht1E receptor), the two independent pIC50 determined must be concordant with a 1 log unit interval for the assays to be validated.

5-HT2A receptor [2] = molecular target: T2, 5-HT2A receptor (Homo sapiens, UniProt P28223); assay: cell-based; parameters: species or system CHO-K1; IPOne HTRF agonist assay, IP1 accumulation in adherent transfected cells
T2 construct: gene HTR2A; full-length human recombinant receptor in CHO-K1 cells (Ogeda); crude membranes
T2 sequence (P28223 whole entry): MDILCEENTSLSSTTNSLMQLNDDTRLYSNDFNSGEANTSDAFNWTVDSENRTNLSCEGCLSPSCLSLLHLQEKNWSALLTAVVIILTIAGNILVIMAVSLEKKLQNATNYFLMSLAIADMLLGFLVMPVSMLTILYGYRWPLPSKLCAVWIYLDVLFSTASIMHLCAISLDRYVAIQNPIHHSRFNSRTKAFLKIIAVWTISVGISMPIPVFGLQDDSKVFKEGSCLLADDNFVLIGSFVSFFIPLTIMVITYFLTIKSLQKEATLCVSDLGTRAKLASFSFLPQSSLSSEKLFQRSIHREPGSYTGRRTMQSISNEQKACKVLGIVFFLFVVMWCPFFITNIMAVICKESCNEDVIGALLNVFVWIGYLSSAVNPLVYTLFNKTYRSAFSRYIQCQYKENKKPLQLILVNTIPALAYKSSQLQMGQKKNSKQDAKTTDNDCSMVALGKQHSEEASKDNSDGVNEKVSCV
Procedure: The assay was performed on adherent cells. For agonist testing, the medium was removed and 20 μl of assay buffer plus 20 μl of the studied agonist or the reference agonist were added in each well. The plate was incubated for 60 min at 37°C with 5% CO2. IP1‐D2 reagent and anti‐IP1 cryptate reagents were dispensed in the wells, and IP1 concentrations were then measured following the manufacturer instructions (IPOne HTRF assay kit; Cisbio International, Codolet, France). In brief, increasing concentrations of agonists were added to stably transfected cells in buffer in an Optiplate (PerkinElmer Life Sciences). The plates were incubated, and cells were then lysed by the addition of HTRF reagents (IP1‐D2 reagent and anti‐IP1 cryptate reagents) and diluted in lysis buffer, followed by incubation at room temperature. […] Additionally, the reference values obtained were compared to historical values obtained from the same receptor and used to validate the experimental session. […] For the new assays developed in this study (i.e., 5‐ht1E receptor), the two independent pIC50 determined must be concordant with a 1 log unit interval for the assays to be validated. […]

5-HT1A receptor [3] = molecular target: T1, 5-HT1A receptor; assay: biochemical; assay type: CHO-K1 membranes; parameters: GTPγS agonist functional assay; conditions: GTPγS
Excerpt: Additionally, the reference values obtained were compared to historical values obtained from the same receptor and used to validate the experimental session. […] For the new assays developed in this study (i.e., 5‐ht1E receptor), the two independent pIC50 determined must be concordant with a 1 log unit interval for the assays to be validated.

5-HT2A receptor [4] = molecular target: T2, 5-HT2A receptor; assay: biochemical; assay type: CHO-K1 membranes; parameters: radioligand competition binding on cell membranes, filtration and TopCount scintillation counting; conditions: for Ki: read-out: 5‐HT2A / pKi (converted)
Procedure: Competition binding was performed in duplicate in the wells of a 96‐well plate containing binding buffer (optimized for each receptor), cell membrane extracts (approximately 20,000 cells distributed in the 96‐well plate), radiotracer, and test agonist. Non‐specific binding was determined by co‐incubation with 200‐fold excess of competitor. Cells were incubated and exposed to varying concentrations (1 pM to 10 μM) of a range of displacer agonists (see below). The samples were incubated in a final volume of 0.1 ml and then filtered over Unifilter plates (Perkin Elmer, Massachusetts, USA) pretreated for 2 hr to limit tracer non‐specific binding. Filters were washed five times with 0.5 ml of ice‐cold washing buffer (tris 50 mM pH 7.4) and 50 μl of Microscint 20 (Perkin Elmer) were added to each filter. The plates were incubated 15 min at room temperature on an orbital shaker and then counted with a TopCount™ (Perkin Elmer) for 1 min per well. […] Additionally, the reference values obtained were compared to historical values obtained from the same receptor and used to validate the experimental session. […] For the new assays developed in this study (i.e., 5‐ht1E receptor), the two independent pIC50 determined must be concordant with a 1 log unit interval for the assays to be validated. […]

5-HT1A receptor [5] = molecular target: T1, 5-HT1A receptor; assay: biochemical; assay type: CHO-K1 membranes; parameters: radioligand competition binding on cell membranes, filtration and TopCount scintillation counting; conditions: radioligand displacement; read-out: 5‐HT1A / pIC50 (converted)
Procedure: Competition binding was performed in duplicate in the wells of a 96‐well plate containing binding buffer (optimized for each receptor), cell membrane extracts (approximately 20,000 cells distributed in the 96‐well plate), radiotracer, and test agonist. Non‐specific binding was determined by co‐incubation with 200‐fold excess of competitor. Cells were incubated and exposed to varying concentrations (1 pM to 10 μM) of a range of displacer agonists (see below). The samples were incubated in a final volume of 0.1 ml and then filtered over Unifilter plates (Perkin Elmer, Massachusetts, USA) pretreated for 2 hr to limit tracer non‐specific binding. Filters were washed five times with 0.5 ml of ice‐cold washing buffer (tris 50 mM pH 7.4) and 50 μl of Microscint 20 (Perkin Elmer) were added to each filter. The plates were incubated 15 min at room temperature on an orbital shaker and then counted with a TopCount™ (Perkin Elmer) for 1 min per well. […] Additionally, the reference values obtained were compared to historical values obtained from the same receptor and used to validate the experimental session. […] For the new assays developed in this study (i.e., 5‐ht1E receptor), the two independent pIC50 determined must be concordant with a 1 log unit interval for the assays to be validated.

[6] = IP, read-out: 5‐HT2A / IP (converted)
[7] = radioligand displacement, read-out: 5‐HT2A / pIC50 (converted)

| Compound | EC50 (5-HT1A receptor [1]) [nM] | EC50 (5-HT2A receptor [2]; [6]) [nM] | EC50 (5-HT1A receptor [3]) [nM] | IC50 (5-HT2A receptor [4]; [7]) [nM] | IC50 (5-HT1A receptor [5]) [nM] | Ki (5-HT2A receptor [4]; radioligand displacement) [nM] | EC50 (5-HT2A receptor [2]) [nM] | IC50 (5-HT2A receptor [4]) [nM] |
| --- | --- | --- | --- | --- | --- | --- | --- | --- |
| CNS(=O)(=O)Cc1ccc2[nH]cc(CCCN3CCN(c4ncncc4OC)CC3)c2c1 [Avitriptan fumarate] | > 10000 | 123 | 646 | 7760 | 63.1 | – | – | – |
| CN1CCC[C@@H]1Cc1c[nH]c2ccc(CCS(=O)(=O)c3ccccc3)cc12 [Eletriptan hydrobromide] | 1820 | 851 | 417 | 3800 | 6.31 | – | – | – |
| CNC1CCc2[nH]c3ccc(C(N)=O)cc3c2C1 (racemic) [Frovatriptan racemate] | > 10000 | > 10000 | 759 | > 10000 | 148 | > 10000 | – | – |
| N#Cc1ccc(N2CCN(C(=O)COc3ccc4[nH]cc(CCN)c4c3)CC2)cc1 [Donitriptan hydrochloride] | 1150 | 7.94 | 182 | 1480 | 38 | – | – | – |
| CNS(=O)(=O)CCc1ccc2[nH]cc(C3CCN(C)CC3)c2c1 [Naratriptan hydrochloride] | > 10000 | > 10000 | 302 | > 10000 | 49 | > 10000 | – | – |
| CN(C)[C@@H]1CCc2[nH]c3ccc(NC(=O)c4ccc(F)cc4)cc3c2C1 [LY344864 hydrochloride] | > 10000 | – | > 10000 | – | 759 | – | > 10000 | 7760 |

From article PMC6965684, “Characterization of binding, functional activity, and contractile responses of the selective 5‐HT1F receptor agonist lasmiditan” (British Journal of Pharmacology, 2019)
